Our source for the IC50 values is patent US20250345329A1, “HETEROARYL DERIVATIVE COMPOUND AND USES THEREOF” (VORONOI, INC., priority 2022, published 2025).

A value given as a limit tells only on which side of the number the result lay.

One may read the IC50 as the concentration that gives 50% inhibition.

T1 sequence (P00533 with tags, fused parts or gaps DEL746-750/T790M/C797S): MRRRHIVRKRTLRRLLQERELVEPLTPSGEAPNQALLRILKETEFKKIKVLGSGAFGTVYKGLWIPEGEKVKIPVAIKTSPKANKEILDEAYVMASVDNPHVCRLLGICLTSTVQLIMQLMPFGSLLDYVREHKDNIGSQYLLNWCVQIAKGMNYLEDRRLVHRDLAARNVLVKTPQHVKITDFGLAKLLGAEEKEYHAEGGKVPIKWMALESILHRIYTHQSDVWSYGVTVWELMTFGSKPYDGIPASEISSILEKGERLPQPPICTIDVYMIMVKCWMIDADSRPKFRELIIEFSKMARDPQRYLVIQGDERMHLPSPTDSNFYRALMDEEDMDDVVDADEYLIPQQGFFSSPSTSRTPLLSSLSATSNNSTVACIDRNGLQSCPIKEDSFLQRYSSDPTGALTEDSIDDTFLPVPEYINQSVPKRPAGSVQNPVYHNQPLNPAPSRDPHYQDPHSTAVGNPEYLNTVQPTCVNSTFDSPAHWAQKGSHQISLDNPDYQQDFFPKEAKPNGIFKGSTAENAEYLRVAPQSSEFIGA

This assay concerns the target T1, human EGFR (d746-750/T790M/C797S) (Homo sapiens, UniProt P00533, C797S/DEL746-750/T790M).
T1 construct: human EGFR (d746-750/T790M/C797S) (668-end, SignalChem); purchased SignalChem
Kind of assay: EGFR C797S enzyme inhibition activity (ADP-Glo kinase assay). The settings on record: purified enzyme 3 ng, ATP 5 μM, 25° C., 1 hour, luminescence; read-out: EGFR DTC Enzyme IC50. The format is biochemical. The procedure:
<Experimental Example 1> Evaluation of EGFR C797S Enzyme Inhibition Activity
The compounds according to the present invention were reacted together with purified human EGFR (d746-750/T790M/C797S) (668-end, SignalChem) enzyme and a specific substrate and evaluated for enzyme inhibitory activity as described below. The reaction buffer consisted of 40 mM Tris-HCl pH 7.4, 20 mM MgCl2, 0.5 mg/ml BSA, and 50 μM DTT, and all reactions of the test substances were performed in reaction buffers. The compounds were serially diluted in 12 steps from a 10 mM DMSO stock, and the enzyme activity was measured at the final compound concentrations of 10, 3, 1, 0.3, 0.1, 0.03, 0.01, 0.003, 0.001, 0.0003, 0.0001, and 0 μM. In the assay, human EGFR (d746-750/T790M/C797S) (3 ng) enzyme was reacted with purified ATP (5 μM) and enzyme substrate (0.2 μg) at 25° C. for 1 hour, and the enzyme activity was determined using the in vitro ADP-Glo™ kinase assay (Promega). The enzyme activity inhibition was measured via luminescence by reacting the enzyme activity reaction solution, ADP-Glo reaction solution, and enzyme activity detection solution in a 2:2:1 ratio. Based on the luminescence of the enzyme activity of the solvent control group that was not treated with the compound, the degree of the enzyme activity inhibition depending on the treatment concentration of each compound was calculated, wherein the concentration of each compound that inhibited the enzyme activity by 50% was determined as the IC50 (nM) value, which was obtained using GraphPad Prism 8.4.3 (GraphPad software Inc., San Diego).
As for `CC(C)Nc1cc(Nc2ccnc(-c3cn[nH]c3)n2)ncc1C(=O)NC1CCNC1` (centres unmarked) [Example 67, 6-((2-(1H-pyrazol-4-yl)pyrimidin-4-yl)amino)-4-(isopropylamino)-N-(pyrrolidin-3-yl)nicotinamide], the IC50 is under 50 nM.

Consider `CC(C)Nc1cc(Nc2ccnc(-c3cnn(S(=O)(=O)C4CC4)c3)n2)ncc1NC(=O)Cc1ccc(C#N)cc1` [Example 85, 2-(4-cyanophenyl)-N-(6-((2-(1-(cyclopropylsulfonyl)-1H-pyrazol-4-yl)pyrimidin-4-yl)amino)-4-(isopropylamin)pyri-din-3-yl)acetamide], for which the IC50 is under 50 nM.

For `CC(C)Nc1cc(Nc2ccnc(-c3cnn(S(=O)(=O)C4CC4)c3)n2)ncc1C(=O)N(C)CC#N` [Example 28, N-(cyanomethyl)-6-((2-(1-(cyclopropylsulfonyl)-1H-pyrazol-4-yl)pyrimidin-4-yl)amino)-4-(isopropylamino)-N-methylnicotinamide], the concentration for half-maximal inhibition (IC50) lay in the range of 50 to 500 nM.

Regarding `CO[C@H]1CCN(c2nccc(Nc3cc(NC4CCOC4)c(C(=O)N4CC(CS(C)(=O)=O)C4)cn3)n2)C[C@H]1F` (relative stereo) [Example 14, (6-((2-(cis-3-fluoro-4-methoxypiperidin-1-yl)pyrimidin-4-yl)amino)-4-((tetrahydrofuran-3-yl)amino)pyridin-3-yl)(3-((methylsulfonyl)meth-yl)azetidin-1-yl)methanone], the IC50 was under 50 nM.

For `CC(C)Nc1cc(Nc2ccnc(-c3cnn(S(=O)(=O)C4CC4)c3)n2)ncc1C(=O)N1CC(N(C)C)C1` [Example 37, (6-((2-(1-(cyclopropylsulfonyl)-1H-pyrazol-4-yl)pyrimidin-4-yl)amino)-4-(isopropylamino)pyri-din-3-yl)(3-(dimethylamino)azeti-din-1-yl)methanone], the IC50 was under 50 nM.

Take `CC(C)Nc1cc(Nc2ccnc(-c3cnn(S(=O)(=O)C4CC4)c3)n2)ncc1C(=O)NC[C@H]1CCCN1` [Example 77, (R)-6-((2-(1-(cyclopropylsulfonyl)-1H-pyrazol-4-yl)pyrimidin-4-yl)amino)-4-(isopropylamino)-N-(pyrrolidin-2-ylmethyl)nicotinamide]: the IC50 was under 50 nM.

Regarding `CNCCCNC(=O)c1cnc(Nc2ccnc(-c3cn[nH]c3)n2)cc1NC(C)C` [Example 59, 6-((2-(1H-pyrazol-4-yl)pyrimidin-4-yl)amino)-4-(isopropylamino)-N-(3-(methylamino)propyl) nicotinamide], the IC50 was under 50 nM.

For the compound `CC(C)Nc1cc(Nc2ccnc(-c3cnn(CC4CC4)c3)n2)ncc1C(=O)N1CC(CS(C)(=O)=O)C1` [Example 43, (6-((2-(1-(cyclopropylmethyl)-1H-pyrazol-4-yl)pyrimidin-4-yl)amino)-4-(isopropylamino)pyri-din-3-yl)(3-((methylsulfonyl)meth-yl)azetidin-1-yl)methanone], the IC50 was under 50 nM.

Regarding `C[C@H]1CCOc2c(cnn2C)-c2nccc(n2)Nc2cc(c(C(=O)Nc3cccc(C(F)(F)F)c3)cn2)N1` [Example 101, (S)-1^1,6-dimethyl-N-(3-(trifluoromethyl)phe-nyl)-1^1H-9-oxa-3,5-diaza-2(2,4)-pyrimidina-4(2,4)-pyridina-1(4,5)-pyrazolacyclo-nonaphane-4^5-carboxamide], the IC50 was in the range of 50 to 500 nM.

As to `CC(C)Nc1cc(Nc2ccnc(-c3cnn(S(=O)(=O)C4CC4)c3)n2)ncc1C(=O)Nc1cc(N2CCC(N3CCN(C)CC3)CC2)cc(S(C)(=O)=O)c1` [Example 75, 6-((2-(1-(cyclopropylsulfonyl)-1H-pyrazol-4-yl)pyrimidin-4-yl)amino)-4-(isopropylamino)-N-(3-(4-(4-methylpiperazin-1-yl)piperidin-1-yl)-5-(methyl-sulfonyl)phenyl) nicotinamide], the IC50 was under 50 nM.

Take `C[C@@H]1CCOc2c(cnn2C)-c2nccc(n2)Nc2cc(c(C(=O)NCC#N)cn2)N1` [Example 84, (R)-N-(cyanomethyl)-1^1,6-dimethyl-1^1H-9-oxa-3,5-diaza-2(2,4)-pyrimidina-4(2,4)-pyridina-1(4,5)-pyrazolacyclo-nonaphane-4^5-carboxamide]: the IC50 is under 50 nM.

For `Cn1cc(Nc2cc(Nc3ccnc(-c4cnn(S(=O)(=O)C5CC5)c4)n3)ncc2C(=O)N2CC(CS(C)(=O)=O)C2)cn1` [Example 22, (6-((2-(1-(cyclopropylsulfonyl)-1H-pyrazol-4-yl)pyrimidin-4-yl)amino)-4-((1-methyl-1H-pyrazol-4-yl)amino)pyridin-3-yl)(3-((methylsulfonyl)meth-yl)azetidin-1-yl)methanone], the IC50 lay within 50 to 500 nM.

`CNCCCNC(=O)c1cnc(Nc2ccnc(-c3cnn(S(=O)(=O)C4CC4)c3)n2)cc1NC(C)C` [Example 60, 6-((2-(1-(cyclopropylsulfonyl)-1H-pyrazol-4-yl)pyrimidin-4-yl)amino)-4-(isopropoylamino)-N-(3-(methylamino)propyl) nicotinamide]: the IC50 is under 50 nM.

Consider `CC(C)Nc1cc(Nc2ccnc(N3CCNC(=O)C3)n2)ncc1C(=O)N1CC(CS(C)(=O)=O)C1` [Example 45, 4-(4-((4-(isopropylamino)-5-(3-((methylsulfonyl)meth-yl)azetidine-1-carbonyl)pyridin-2-yl)amino)pyrimidin-2-yl)piperazin-2-one], for which the half-inhibitory concentration (IC50) lay in the range of 50 to 500 nM.

Regarding `CC(C)Nc1cc(Nc2ccnc(-c3cnn(S(=O)(=O)C4CC4)c3)n2)ncc1C(=O)NCCC(C)c1ccccc1` (centres unmarked) [Example 54, 6-((2-(1-(cyclopropylsulfonyl)-1H-pyrazol-4-yl)pyrimidin-4-yl)amino)-4-(isopropylamino)-N-(3-phenylbutyl)nicotina-mide], the IC50 was in the range of 50 to 500 nM.

Regarding `C[C@H]1CCOc2c(cnn2C)-c2nccc(n2)Nc2cc(c(C(=O)O)cn2)N1` [Example 117, (S)-1^1,6-dimethyl-1^1H-9-oxa-3,5-diaza-2(2,4)-pyrimidina-4(2,4)-pyridina-1(4,5)-pyrazolacyclo-nonaphane-4^5-carboxylic acid], the IC50 was under 50 nM.

For the compound `CC(C)Nc1cc(Nc2ccnc(N3CCN(C)CC3)n2)ncc1C(=O)N1CC(CS(C)(=O)=O)C1` [Example 11, (4-(isopyropylamino)-4-((2-(4-methylpiperazin-1-yl)pyrimidin-4-yl)amino)pyridin-3-yl)(3-((methylsulfonyl)meth-yl)azetidin-1-yl)methanone], the IC50 is 50 to 500 nM.

Regarding `CC(C)Nc1cc(Nc2ccnc(-c3cnn(S(=O)(=O)C4CC4)c3)n2)ncc1C(=O)NCCc1ccccc1` [Example 52, 6-((2-(1-(cyclopropylsulfonyl)-1H-pyrazol-4-yl)pyrimidin-4-yl)amino)-4-(isopropylamino)-N-phenethylnicotinamide], the concentration for half-maximal inhibition (IC50) was under 50 nM.

`CO[C@H]1CCN(c2nccc(Nc3cc(NC(C)C)c(C(=O)N4CC(CS(C)(=O)=O)C4)cn3)n2)C[C@H]1F` (relative stereo) [Example 2, (6-((2-(cis-3-fluoro-4-methoxypiperidin-1-yl)pyrimidin-4-yl)amino)-4-(isopropylamino)pyri-din-3-yl)(3-((methylsulfonyl)meth-yl)azetidin-1-yl)methanone]: the IC50 was under 50 nM.

For the compound `CC(C)Nc1cc(Nc2ccnc(-c3cnn(S(=O)(=O)C4CC4)c3)n2)ncc1C(=O)N(C)CCN(C)C` [Example 26, 6-((2-(1-(cyclopropylsulfonyl)-1H-pyrazol-4-yl)pyrimidin-4-yl)amino)-N-(2-(dimethylamino)ethyl)-4-(isopropylamino)-N-methylnicotinamide], the IC50 lay within 50 to 500 nM.
